According to US10646488B2 (Araxes Pharma LLC, priority 2016, dated 2020):

Target: T1, KRAS G12C 1-169, his-tagged protein, GDP-loaded (Homo sapiens, UniProt P01116, G12C)
T1 construct: KRAS G12C 1-169, his-tagged protein, GDP-loaded
Assay: Covalent binding (% modification) to KRAS G12C by mass spectrometry; further: test concentration or dose not given here

[1] = covalent binding to KRAS G12C after a three minute incubation period
[2] = covalent binding to KRAS G12C after a ten minute incubation period

Row | SMILES | Binding % [1] | Binding % [2]
1 | C=CC(=O)N1C[C@H](C)N(c2nc(N3CC(N(C)C)C3)nc3c(F)c(-c4cc(O)cc5ccccc45)c(C(F)(F)F)cc23)C[C@H]1C [Compound 178, 1-((2R,5S)-4-(2-(3-(dimethylamino)azetidin-1-yl)-8-fluoro-7-(3-hydroxynaphthalen-1-yl)-6-(trifluoromethyl)quinazolin-4-yl)-2,5-dimethyl-piperazin-1-yl) prop-2-en-1-one] | +++ (+++ indicates binding activity greater than 90%) | 
2 | C=CC(=O)N1C[C@H](C)N(c2nc(OCCCN(CC)CC)nc3c(F)c(-c4c(O)cccc4F)c(Cl)cc23)C[C@H]1C [Compound 158, 1-((2R,5S)-4-(6-chloro-2-(3-(diethylamino)propoxy)-8-fluoro-7-(2-fluoro-6-hydroxyphenyl)quinazolin-4-yl)-2,5-dimethyl-piperazin-1-yl) prop-2-en-1-one] | +++ (+++ indicates binding activity greater than 90%) | 
3 | C=CC(=O)N1C[C@H](C)N(c2nc(N3CC(N(C)C)C3)nc3c(F)c(-c4c(O)cccc4F)c(Cl)cc23)C[C@H]1C (atropisomer, axis not shown) [Compound 53, 1-((2R,5S)-4-((R)-6-chloro-2-(3-(dimethylamino)azetidin-1-yl)-8-fluoro-7-(2-fluoro-6-hydroxyphenyl)quinazolin-4-yl)-2,5-dimethyl-piperazin-1-yl) prop-2-en-1-one] |  | + (+ indicates binding activity up to 50%)
4 | C=CC(=O)N1C[C@H](C)N(c2nc(N3CC4(CCCN(C)C4)C3)nc3c(F)c(-c4c(O)cccc4F)c(Cl)cc23)C[C@H]1C [Compound 183, 1-((2R,5S)-4-(6-chloro-8-fluoro-7-(2-fluoro-6-hydroxyphenyl)-2-(6-methyl-2,6-diazaspiro[3.5]nonan-2-yl)quinazolin-4-yl)-2,5-dimethyl-piperazin-1-yl) prop-2-en-1-one] | ++ (++ indicates binding activity from 50 to 90%) | 
5 | C=CC(=O)N1C[C@H](C)N(c2nc(N3CC(N)C3)nc3c(F)c(-c4c(C)ccc5[nH]ncc45)c(Cl)cc23)C[C@H]1C [Compound 165, 1-((2R,5S)-4-(2-(3-aminoazetidin-1-yl)-6-chloro-8-fluoro-7-(5-methyl-1H-indazol-4-yl)quinazolin-4-yl)-2,5-dimethyl-piperazin-1-yl) prop-2-en-1-one] | ++ (++ indicates binding activity from 50 to 90%) | 
6 | C=CC(=O)N1[C@H](C)CN(c2nc(N3CC(N(C)C)C3)nc3c(F)c(-c4c(O)cccc4F)c(Cl)cc23)C[C@@H]1C [Compound 26, 1-((2R,6S)-4-(6-chloro-2-(3-(dimethylamino)azetidin-1-yl)-8-fluoro-7-(2-fluoro-6-hydroxyphenyl)quinazolin-4-yl)-2,6-dimethyl-piperazin-1-yl) prop-2-en-1-one] |  | ++ (++ indicates binding activity from 50 to 90%)
7 | C=CC(=O)N1[C@H](C)CN(c2nc(N)nc3c(F)c(-c4c(C)ccc5cn[nH]c45)c(Cl)cc23)C[C@@H]1C [Compound 6, 1-((2S,6R)-4-(2-amino-6-chloro-8-fluoro-7-(6-methyl-1H-indazol-7-yl)quinazolin-4-yl)-2,6-dimethyl-piperazin-1-yl) prop-2-en-1-one] |  | ++ (++ indicates binding activity from 50 to 90%)
8 | C=CC(=O)N1CCN(c2nc(CNCc3ncccn3)nc3c(F)c(-c4c(O)cccc4F)c(Cl)cc23)C[C@H]1C [Compound 95, 1-((2R)-4-(6-chloro-8-fluoro-7-(2-fluoro-6-hydroxyphenyl)-2-(((pyrimidin-2-ylmethyl)amino)methyl)quinazolin-4-yl)-2-methyl-piperazin-1-yl) prop-2-en-1-one] | ++ (++ indicates binding activity from 50 to 90%) | 
9 | C=CC(=O)N1CCN(c2nc(N3CC(N(C)C)C3)nc3c(F)c(-c4c(O)cccc4F)c(Cl)cc23)[C@@H](C)C1 [Compound 8, 1-((3 S)-4-(6-Chloro-2-(3-(Dimethylamino)Azetidin-1-Yl)-8-Fluoro-7-(2-Fluoro-6-Hydroxyphenyl)Quinazolin-4-Yl)-3-Methylpiperazin-1-Yl)Prop-2-En-1-One] |  | +++ (+++ indicates binding activity greater than 90%)
10 | C=CC(=O)N1C[C@H](C)N(c2nc(OCCN3CC(F)(F)C3)nc3c(F)c(-c4c(C)ccc5[nH]ncc45)c(Cl)cc23)C[C@H]1C [Compound 55, 1-((2R,5S)-4-(6-chloro-2-(2-(3,3-difluoroazetidin-1-yl)ethoxy)-8-fluoro-7-(5-methyl-1H-indazol-4-yl)quinazolin-4-yl)-2,5-dimethyl-piperazin-1-yl) prop-2-en-1-one] |  | +++ (+++ indicates binding activity greater than 90%)
11 | C=CC(=O)N1C[C@H](C)N(c2nc(N3CC(N(CC)C4CC4)C3)nc3c(F)c(-c4c(O)cccc4F)c(Cl)cc23)C[C@H]1C [Compound 105, 1-((2R,5S)-4-(6-chloro-2-(3-(cyclopropyl (ethyl)amino)azetidin-1-yl)-8-fluoro-7-(2-fluoro-6-hydroxyphenyl)quinazolin-4-yl)-2,5-dimethyl-piperazin-1-yl) prop-2-en-1-one] | ++ (++ indicates binding activity from 50 to 90%) | 
12 | C=CC(=O)N1C[C@H](C)N(c2nc(N3CC(N(C)C4CC4)C3)nc3c(F)c(-c4c(C)ccc5[nH]ncc45)c(Cl)cc23)C[C@H]1C [Compound 134, 1-((2R,5S)-4-(6-chloro-2-(3-(cyclopropyl (methyl)amino)azetidin-1-yl)-8-fluoro-7-(5-methyl-1H-indazol-4-yl)quinazolin-4-yl)-2,5-dimethyl-piperazin-1-yl) prop-2-en-1-one] | ++ (++ indicates binding activity from 50 to 90%) | 
13 | C=CC(=O)N1C[C@H](C)N(c2nc(N3CC(N(C)C(C)C)C3)nc3c(F)c(-c4c(C)ccc5cn[nH]c45)c(Cl)cc23)C[C@H]1C [Compound 122, 1-((2R,5S)-4-(6-chloro-8-fluoro-2-(3-(isopropyl (methyl)amino)azetidin-1-yl)-7-(6-methyl-1H-indazol-7-yl)quinazolin-4-yl)-2,5-dimethyl-piperazin-1-yl) prop-2-en-1-one] | ++ (++ indicates binding activity from 50 to 90%) | 
14 | C=CC(=O)N1CCN(c2nc(N)nc3c(F)c(-c4c(O)cccc4F)c(Cl)cc23)C[C@H]1C [Compound 1, 1-((2R)-4-(2-amino-6-chloro-8-fluoro-7-(2-fluoro-6-hydroxyphenyl)quinazolin-4-yl)-2-methylpiperazin-1-yl)prop-2-en-1-one] |  | ++ (++ indicates binding activity from 50 to 90%)
15 | C=CC(=O)N1C[C@H](C)N(c2nc(N3CC(N(CC)CC)C3)nc3c(F)c(-c4c(O)cccc4F)c(Cl)cc23)C[C@H]1C (atropisomer, axis not shown) [Compound 176, 1-((2R,5S)-4-(6-chloro-2-(3-(diethylamino)azetidin-1-yl)-8-fluoro-7-((R)-2-fluoro-6-hydroxyphenyl)quinazolin-4-yl)-2,5-dimethyl-piperazin-1-yl) prop-2-en-1-one] | + (+ indicates binding activity greater than 0% and up to 50%) | 
16 | C=CC(=O)N1C[C@@H](C)N(c2nc(N3CC(O)C3)nc3c(F)c(-c4c(O)cccc4F)c(Cl)cc23)[C@@H](C)C1 [Compound 66, 1-((3R,5S)-4-(6-chloro-8-fluoro-7-(2-fluoro-6-hydroxyphenyl)-2-(3-hydroxyazetidin-1-yl)quinazolin-4-yl)-3,5-dimethyl-piperazin-1-yl) prop-2-en-1-one] |  | +++ (+++ indicates binding activity greater than 90%)
